# Measured values published in patent US20230165821A1, “ELAFIBRANOR FOR THE TREATMENT OF PRIMARY SCLEROSING CHOLANGITIS” (Genfit, priority 2020, published 2023).
# Entries after “also recorded” stand apart in the source; their conditions may differ.
# Legend:
# Type in all cases: in vivo, human
# [1] = tested on: alkaline phosphatase (ALP) level; assay: Phase I clinical trial, assessment of ALP level; conditions: for Measure of ALP Day 15 change from the baseline: fasting, n=9, baseline day 1
# Text: (§1) Patients with clinical PSC have elevated alkaline phosphatase (ALP) and bilirubin levels. […] Some studies underline also elevated levels of bilirubin (Denau, M.R. et al., The Natural History of Primary Sclerosing Cholangitis in 781 Children: A Multicenter, International Collaboration. Hepatology (2017), Vol. 66, N° 2 pp518-527).
# (§2) This clinical trial has been performed to assess the tolerability, safety and reduction of different parameters, including alkaline phosphatase of once-a-day administrations of oral doses of elafibranor (ELA) in […]. This was a phase I, single-center, double-blind, placebo-controlled, randomised, ascending multiple-dose study in healthy male volunteers. Doses of 40 mg or 60 mg once-a-day during 14 days were tested.
# (§3) Thirty 19-40 years old Caucasian male volunteers were included: 9 for each treatment group and 12 for the placebo group.
# (§4) The compound used was ELA, supplied in hard gelatin capsules dosed at 10 mg. Dose per administration was of 40 mg or 60 mg. Administration was repeated once-a-day, with an oral administration around 8 a.m. with 200 mL tap water, in sitting position, in fasting conditions, from day 1 to day 14. Matching placebo was presented as identical capsules.
# Alkaline phosphatase level was assessed at baseline (day 1) and day 15.
# total bilirubin level = assay: Phase I clinical trial, assessment of bilirubin level; conditions: for Measure of total bilirubin Day 15 change from the baseline: fasting, n=9
# Text: as §1, §2, §3, §4
# healthy male volunteers = assay: Phase I clinical trial, tolerability and safety
# Protocol: as §2, §3, §4
# [2] = ELA 40 mg/day oral once-a-day for 14 days
# [3] = ELA 60 mg/day oral once-a-day for 14 days
smiles,measurement,setting,value
"CSc1ccc(C(=O)C=Cc2cc(C)c(OC(C)(C)C(=O)O)c(C)c2)cc1 [ELA, 2-(2,6-dimethyl-4-{3-[4-(methylsulfanyl)phenyl]-3-oxopropen-1-yl}phenoxy)-2-methylpropanoic acid]",Measure of ALP Day 15 change from the baseline,[1]; [2],-8.3
same,Measure of ALP Day 15 change from the baseline,[1]; [3],-20.7
same,Alkaline phosphatase levels compared to placebo group,"[1]; both doses (40 mg and 60 mg), once-a-day, 14 days, listed as elafibranor",improved alkaline phosphatase levels compared to placebo group; also recorded: decreased mean ALP compared with placebo
same,Measure of total bilirubin Day 15 change from the baseline,total bilirubin level; [2],-2.07
same,Measure of total bilirubin Day 15 change from the baseline,total bilirubin level; [3],-2.46
same,Total bilirubin levels compared to placebo group,"total bilirubin level; both doses (40 mg and 60 mg), once-a-day, 14 days",improved total bilirubin levels compared to placebo group
same,Serious adverse events,"healthy male volunteers; 40 mg or 60 mg once-a-day, 14 days, oral",No serious adverse events were reported
same,Clinical tolerance,"healthy male volunteers; repeated administration at either dose (40 mg or 60 mg), healthy volunteers",good clinical tolerance
